# Assay results reported in PMC6826492, “Experimental and Computational Study of the Antioxidative Potential of Novel Nitro and Amino Substituted Benzimidazole/Benzothiazole-2-Carboxamides with Antiproliferative Activity” (Antioxidants, 2019).
# Where two headings read alike, the source gives them in different places.
# Tests used:
# [1] = cited from earlier work; for N–H BDE: in water ref 48
# [2] = DFT calculation of bond dissociation and ionization energies; conditions: for BDE lower than BDE (M1): difference to M1
# Excerpt: All geometrical parameters were optimized employing the density functional theory (DFT) B3LYP functional (unrestricted UB3LYP for the radicals), together with the 6–31+G(d) basis set, followed by the vibrational analysis using the Gaussian 16 software. Thermal corrections were extracted from the matching uncorrected vibrational frequencies, also used to confirm the obtained structures as true minima by the lack of imaginary frequencies. The final electronic energies were refined through single-point calculations with a highly flexible 6–311++G(2df,2pd) basis set. Solvent effects were considered through the implicit SMD polarizable continuum model with all parameters for pure ethanol (ε = 24.852), giving the B3LYP/6–311++G(2df,2pd)//(SMD)/B3LYP/6–31+G(d) model employed here, being fully in line with our earlier reports. As such, all computational values correspond to differences in Gibbs free energies obtained at a room temperature of 298 K and a normal pressure of 1 atm. The choice of this computational setup was additionally prompted by its success in modeling mechanisms of various antioxidants, and in reproducing kinetic and thermodynamic parameters of a variety of organic and enzymatic reactions. According to the literature, there are several mechanisms that relate to the antioxidative properties of molecules. Here, we inspected the two most frequent, and usually thermodynamically most preferred antioxidant mechanisms, namely hydrogen atom transfer (HAT), and single electron transfer (SET) that is commonly followed by proton transfer (SET-PT). All these mechanisms result in the formation of the same antioxidant radical.
# HAT is a major route where the H atom (hydrogen radical, H•) is directly transferred from an antioxidant (M) to a free radical accompanied by the homolytic M–H bond cleavage. The capacity of this process is governed by the M–H bond dissociation energy (BDE), calculated as:M–H → M• + H• BDE = G(M•) + G(H•) − G(M–H).
# Scavenging the free radicals can also be accomplished by donating an electron from a system M in the SET-PT process. This process is driven by the adiabatic ionization energy (IE) necessary to eject a single electron from M, calculated as:M → M•^+ + e^− IE = G(M•^+) − G(M).
# [3] = Ferric reducing/antioxidant power (FRAP assay); type: biochemical; conditions: for FRAP: means ± standard deviation, absorbance at 593 nm
# Procedure: The FRAP method was carried out according to previously described procedures with some modifications to be compatible with an assay on a 96-well microplate. All tests were done in triplicate, while the obtained results were averaged and reported as Fe^2+ equivalents (Fe^2+ µmol).
# By using the FRAP assay, we investigated the reducing power of investigated systems, which was monitored by the corresponding changes in the absorbance at 593 nm. This method is based on the ability of systems to reduce the ferric tripyridyl triazine complex (TPTZ) to the ferrous state (Fe^2+), which can be seen by an intense blue color. […] Good reducing ability was shown by the trimethoxy substituted benzimidazole-2-carboxamide 14 bearing the amino group (1102.5 ± 14.1 mmolFe^2+/mmolC).
# [4] = DPPH free radical scavenging; type: biochemical; set-up: key to DPPH IC50: –: Very low activity; conditions: after 30 min of incubation with 100 μM DPPH
# Procedure: The reducing activity of investigated systems was achieved by the DPPH method according to previously described procedures with modifications to assure the use in a 96-well microplate. Briefly, equal volumes of various concentrations of tested molecules (dissolved in DMSO) were added to the solution of DPPH (final concentration 50 µM in absolute ethanol). Ethanol and DMSO were used as control solutions in line with earlier reports.
# [5] = tested on: HCT 116 (colon carcinoma); assay: Antiproliferative activity in vitro (MTT assay); type: cell-based, human; conditions: Homo sapiens, HCT-116, 72 h, 72 h incubation, concentration that causes 50% growth inhibition, read-out: IC50 HCT116
# Procedure: (§1) The experiments were performed on four human cell lines, including HCT 116 (colon carcinoma), H 460 (lung carcinoma), MCF-7 (breast carcinoma), and HEK 293 (human embryonic kidney cells), in line with previously published experimental procedures. Briefly, the cells were grown in DMEM medium with the addition of 10% fetal bovine serum (FBS), 2 mM L-glutamine, 100 U/mL penicillin, and 100 µg/mL streptomycin, and cultured as monolayers at 37 °C in a humidified atmosphere with 5% CO2. Cells were seeded at 2 × 10^3 cells/well in a standard 96-well microtiter plates and left to attach for 24 h. The next day, a test compound was added in five serial 10-fold dilutions. The rate of cell growth was evaluated after 72 h of incubation with MTT assays. The obtained results are expressed as IC50 values, calculated from the concentration-response curve using linear regression analysis by fitting the test concentrations that give PG values above and below the reference value (i.e., 50%). Each test was performed in quadruplicate in at least two individual experiments.
# H 460 (lung carcinoma) = assay: Antiproliferative activity in vitro (MTT assay); type: cell-based, human; conditions: Homo sapiens, NCI-H460, 72 h, 72 h incubation, concentration that causes 50% growth inhibition
# Procedure: as §1
# MCF-7 (breast carcinoma) = assay: Antiproliferative activity in vitro (MTT assay); type: cell-based, human; conditions: Homo sapiens, MCF7, 72 h, 72 h incubation, concentration that causes 50% growth inhibition
# Procedure: as §1
# [6] = tested on: HEK 293 (human embryonic kidney cells); assay: Cytotoxic activity on non-cancerous cells (MTT assay); type: cell-based; conditions: Homo sapiens, HEK293; non-tumor cell line; 72 h incubation, MTT; concentration that causes 50% growth inhibition
# Procedure: as §1
# HCT 116 cells = assay: Antioxidative activity assay in cells (TBHP-induced ROS, DCFH-DA); type: cell-based, human; conditions: 100 µM TBHP + 10 µM compound, 1 h, DCFH-DA fluorescence
# Procedure: For the antioxidative activity assay, 2.5 × 10^4 cells were seeded into 96-well microtiter plates and left to attach for 24 h. The next day, cells were washed with PBS and incubated in FBS-free DMEM medium with 25 µM DCFH-DA fluorescence dye. After 45 min of incubation, medium was discarded, and cells were washed with PBS. After the washing step, cells were incubated with 100 µM tert-Butyl hydroperoxide (TBHP) alone or in combination with antioxidative agents (50 mM N-Acetyl-L-cysteine—NAC, or 10 µM tested compounds) in PBS, for 1 h at 37 °C. DCFH-DA fluorescence was recorded on a microplate fluorimeter reader (Tecan) with excitation beam of 485 nm, while the emitted fluorescence was collected at 535 nm. All tests were presented as medians of three independent measurements, done in triplicates. One-way ANOVA with Tukey’s post-hoc test was used for statistical analysis, * p < 0.05, ** p < 0.01, *** p < 0.001.
# In order to test the antioxidant activity of selected systems in tumor cells (Figure 1), we treated HCT 116 cells with tert-Butyl hydroperoxide (TBHP), a substance commonly used for inducing oxidative stress in cells and tissues, alone or in a combination with a known antioxidative agent N-Acetyl-L-cysteine (NAC) or tested compounds [35]. We measured the formation of oxidative stress by-products using 2′,7′-dichlorodihydrofluorescein diacetate (DCFH-DA). We selected system 8 showing pronounced antiproliferative/cytotoxic activity, but no antioxidant capacity in DPPH/FRAP assays, 29 showing exceptionally pronounced antioxidative activity in DPPH/FRAP tests, 14 showing negligible antiproliferative but strong antioxidant capacity in both DPPH/FRAP assays, and 26 showing similarly strong antiproliferative and radical trapping activity in DPPH assay, but rather modest reducing power in FRAP assay. None of the compounds influenced the basal level of ROS in the cells. […] On the other hand, no effect was obtained upon treatment with either 8 or 14 (Figure 1). We additionally tested the impact of the selected compounds on cellular and mitochondrial ROS production in HCT 116 cells using fluorescent dyes, DCFH-DA for cellular and MitoSOX for mitochondrial ROS detection (Supplementary Materials, Figures S53 and S54).
# Figure 1 Antioxidative activity of selected systems. HCT 116 cells were treated with the combination of tert-Butyl hydroperoxide (TBHP, 100 uM) and N-Acetyl-L-cysteine (NAC, 50 mM) or tested compounds 8, 14, 26, and 29 (10 µM) for 1 h. The level of reactive oxygen species (ROS) was measured with fluorescent dye 2′,7′-dichlorodihydrofluorescein diacetate (DCFH-DA) using fluorimeter. Treatment with 100 uM TBHP alone was used as a control for ROS induction. Data presented here are the results of three independent measurements, done in triplicates. […]
# [7] = monocationic, in acetonitrile ref 39
smiles,measurement,setting,value
"N#Cc1ccc(N)cc1 [Compound 4-CN-aniline, 4-CN-aniline]",N–H BDE,[1],91.8 kcal/mol
O=C(Nc1nc2ccc([N+](=O)[O-])cc2s1)c1ccc(O)cc1 [Compound M10],lowering of antioxidative capacity (BDE increase) relative to M8,[2]; difference to M8,1.1 kcal/mol
O=C(Nc1nc2ccccc2s1)c1ccccc1 [Compound M1],BDE higher than that for BHT,[2]; difference to BHT (65.8),16.9 kcal/mol
COc1ccc(N)cc1 [4-OMe-aniline],N–H BDE,[1],87.2 kcal/mol
CN [Me–NH3^+],BDE,[1]; [7],114.6 kcal/mol
"Cc1cc(C(C)(C)C)c(O)c(C(C)(C)C)c1 [BHT, butylated hydroxytoluene, reference compound]",BDE,[1]; in benzene ref 45,76.9 kcal/mol
same,BDE,[1]; in heptane ref 44,79.9 kcal/mol
same,BDE,[1]; in toluene ref 46,72.4 kcal/mol
same,FRAP,[3],2089 ± 60 mmolFe^2+/mmolC
same,IC50,[4],25 ± 4 µM
"Oc1cccc(O)c1O [1,2,3-trihydroxybenzene]","calculated BDE lower than that for its 1,3,5-trihydroxy analogue",[1]; in toluene ref 46,15 kcal mol^−1
O=C(Nc1nc2ccccc2s1)c1ccc(O)cc1 [Compound M8],BDE lower than BDE (M1),[2],4.8 kcal/mol
COc1cc(C(=O)Nc2nc3ccc(N)cc3[nH]2)cc(OC)c1OC [Compound M22],more potent antioxidant (lower BDE) than nitro-substituted M21,[2]; difference to M21,~15 kcal/mol
NC1CCCCC1 [c-C6H11–NH3^+],BDE,[1]; [7],113.6 kcal/mol
Nc1ccccc1 [aniline],N–H BDE,[1],89.1 kcal/mol
Oc1ccccc1 [phenol],calculated BDE,[1],82.9 kcal/mol
"COc1ccc(C(=O)Nc2nc3ccc([N+](=O)[O-])cc3[nH]2)c(OC)c1 [Compound 7, 2,4-dimethoxy-N-[5(6)-nitrobenzimidazol-2-yl]benzamide]",IC50,[5],3 ± 0.2 µM
same,IC50,H 460 (lung carcinoma),4 ± 2 µM
same,IC50,MCF-7 (breast carcinoma),2 ± 0.9 µM
same,FRAP,[3],139.6 ± 16.9 mmolFe^2+/mmolC
same,DPPH IC50,[4],–
same,IC50,[6],2 ± 0.3 µM
O=C(O)c1cc(O)c(O)c(O)c1 [gallic acid],calculated BDE,[1],77.0 kcal/mol
"O=C(Nc1ccccc1)c1ccccc1 [Ph–CO–NH–Ph, reference compound]",BDE,[1]; earlier calculations of the authors ref 24,85.3 kcal/mol
Nc1ccc2nc(NC(=O)c3ccccc3)sc2c1 [Compound M7],BDE lower than BDE (BHT),[2]; difference to BHT (65.8),17.5 kcal/mol
"O=C(Nc1nc2ccc([N+](=O)[O-])cc2s1)c1cc(O)c(O)c(O)c1 [Compound 29, 3,4,5-trihydroxy-N-(6-nitrobenzothiazol-2-yl)benzamide]",ROS levels when oxidative stress was induced,HCT 116 cells,significantly reduced the ROS levels
same,BDE increase relative to M12,[2]; difference to M12,0.8 kcal/mol
same,IC50,[5],7 ± 1 µM
same,IC50,H 460 (lung carcinoma),2 ± 1 µM
same,IC50,MCF-7 (breast carcinoma),4 ± 0.7 µM
same,FRAP,[3],6139.2 ± 3.0 mmolFe^2+/mmolC
same,FRAP reducing power in comparison to standard BHT,[3]; relative to BHT,threefold higher
same,IC50,[4],2 ± 0.15 µM
same,IC50,[6],6 ± 4 µM
Nc1ccccc1 [Ph–NH3^+],BDE,[1]; [7],84.9 kcal/mol
O=C(NC1=Nc2ccccc2C1)c1ccccc1 [Compound M4],BDE lower than BDE (M1),[2],10.1 kcal/mol
Nc1ccc2nc(NC(=O)c3ccccc3)sc2c1 [Compound M6],BDE lower than BDE (M1),[2],7.1 kcal/mol
COc1ccc(C(=O)Nc2nc3ccccc3s2)cc1 [Compound M9],BDE lower than BDE (M1),[2],0.5 kcal/mol
